Experiment: xn = mol fraction of the nth substance listed

CCCOCC(C)OCC(C)O (stereo unspecified) + CCCCCCCO
298.15 K, 101 kPa
Conditions	viscosity [mPa·s]
x1 = 0.0145	5.795
x1 = 0.0297	5.725
x1 = 0.072	5.58
x1 = 0.1172	5.426
x1 = 0.1578	5.332
x1 = 0.2004	5.236
x1 = 0.2276	5.185
x1 = 0.2594	5.134
x1 = 0.3052	5.067
x1 = 0.4171	4.913
x1 = 0.4502	4.864
x1 = 0.5104	4.775
x1 = 0.5572	4.699
x1 = 0.6014	4.616
x1 = 0.6573	4.51
x1 = 0.7008	4.419
x1 = 0.7589	4.295
x1 = 0.8	4.207
x1 = 0.8512	4.098
x1 = 0.9118	3.985
x1 = 0.9578	3.916
x2 = 0.009	3.879
x2 = 0.0121	3.88

CCOP(OCC)OCC + CC#N
298.15 K, 101 kPa
Conditions	viscosity [mPa·s]
x1 = 0.2	0.452
x1 = 0.4	0.512
x1 = 0.6	0.573
x1 = 0.8	0.642

CCCOCC(C)OCC(C)O (stereo unspecified) + CO
298.15 K, 101 kPa
Conditions	viscosity [mPa·s]
x1 = 0.0049	0.5615
x1 = 0.0317	0.671
x1 = 0.0663	0.8138
x1 = 0.1021	0.9677
x1 = 0.1531	1.186
x1 = 0.2032	1.412
x1 = 0.2563	1.651
x1 = 0.3125	1.899
x1 = 0.3556	2.09
x1 = 0.4091	2.314
x1 = 0.4685	2.55
x1 = 0.5204	2.746
x1 = 0.5557	2.869
x1 = 0.6337	3.117
x1 = 0.6879	3.273
x1 = 0.7232	3.366
x1 = 0.8407	3.639
x1 = 0.8827	3.724
x1 = 0.937	3.813

CC(=O)OCCC(C)C + CCCCOC(C)=O
viscosity [mPa·s], 101 kPa
Conditions	x1 = 0.2	x1 = 0.4	x1 = 0.6	x1 = 0.8
293.15 K	0.75	0.776	0.802	0.831
313.15 K	0.575	0.592	0.611	0.629

CC(=O)OCCC(C)C + Cc1ccccc1C
viscosity [mPa·s], 101 kPa
Conditions	298.15 K	308.15 K
x1 = 0.045	0.754	0.657
x1 = 0.1503	0.745	0.659
x1 = 0.2526	0.738	0.66
x1 = 0.3475	0.735	0.664
x1 = 0.4468	0.735	0.67
x1 = 0.4819	0.735	0.673
x1 = 0.5459	0.737	0.679
x1 = 0.649	0.741	0.69
x1 = 0.7465	0.749	0.702
x1 = 0.8524	0.76	0.719
x1 = 0.9401	0.772	0.735

CC(=O)Nc1ccccc1 + Nc1ccccc1
viscosity [mPa·s], 101.3 kPa
Conditions	298.15 K	323.15 K
x1 = 0.108	46.7	23.6
x1 = 0.195	113.4	42.5

CC(=O)OCCC(C)C + Cc1ccccc1
viscosity [mPa·s], 101 kPa
Conditions	298.15 K	308.15 K
x1 = 0.0474	0.555	0.505
x1 = 0.1513	0.567	0.522
x1 = 0.2512	0.581	0.54
x1 = 0.3494	0.598	0.56
x1 = 0.4458	0.616	0.581
x1 = 0.4978	0.627	0.593
x1 = 0.5497	0.639	0.606
x1 = 0.649	0.664	0.632
x1 = 0.7499	0.692	0.661
x1 = 0.855	0.726	0.695
x1 = 0.9448	0.759	0.726

CCCC(=O)[O-].[NH3+]CCO + O
viscosity [mPa·s], 101 kPa
Conditions	x1 = 0.0063	x1 = 0.0132	x2 = 0.8927	x2 = 0.9254	x2 = 0.9508	x2 = 0.9707	x2 = 0.9793
293.15 K	1.38	1.662	9.498	5.73	3.702	2.46	1.98
298.15 K	1.248	1.476	7.89	4.836	3.21	2.145	1.776
303.15 K	1.104	1.32	6.6	4.182	2.814	1.878	1.59

O=C(O)C1CCCCC1 + CCCCCCCCCCO
viscosity [mPa·s], 101 kPa
Conditions	310 K	320 K
x2 = 0.0377	12.1	8.54
x2 = 0.0625	11.8	8.32
x2 = 0.1776	10.6	7.57
x2 = 0.2753	9.61	6.94
x2 = 0.4103	8.79	6.39
x2 = 0.4952	8.45	6.15
x2 = 0.5659	8.15	5.94
x2 = 0.6678	7.86	5.72
x2 = 0.7657	7.7	5.6
x2 = 0.8462	7.48	5.48
x2 = 0.9063	7.43	5.36
x2 = 0.9593	7.41	5.3

CC(=O)Nc1ccccc1 + CO
viscosity [mPa·s], 101 kPa
Conditions	298.15 K	303.15 K	308.15 K	313.15 K
x1 = 0.08868	0.9964	0.918	0.8461	0.7805
x1 = 0.1132	1.158	1.057	0.9716	0.886

O=P(O)(O)O + O
Conditions	viscosity [mPa·s]
293.15 K, 101 kPa, x1 = 0.404	27.7
293.15 K, 101 kPa, x1 = 0.441	32.01
293.15 K, 101 kPa, x1 = 0.504	46.83
293.15 K, 101 kPa, x1 = 0.537	54.26
293.15 K, 101 kPa, x1 = 0.574	64.47
293.15 K, 101 kPa, x1 = 0.603	69.15
293.15 K, 101 kPa, x1 = 0.616	75.28
293.15 K, 101 kPa, x1 = 0.626	79.2
298 K, 101.33 kPa, x1 = 0.0038	0.939
298 K, 101.33 kPa, x1 = 0.007	0.979
298 K, 101.33 kPa, x1 = 0.014	1.075
298 K, 101.33 kPa, x1 = 0.0215	1.191
298 K, 101.33 kPa, x1 = 0.029	1.307
298 K, 101.33 kPa, x1 = 0.0376	1.457
298 K, 101.33 kPa, x1 = 0.0462	1.62
298 K, 101.33 kPa, x1 = 0.0537	1.786
298 K, 101.33 kPa, x1 = 0.0604	1.955
298 K, 101.33 kPa, x1 = 0.0714	2.204
298 K, 101.33 kPa, x1 = 0.0832	2.521
298 K, 101.33 kPa, x1 = 0.0925	2.842
298 K, 101.33 kPa, x1 = 0.1	3.033
298 K, 101.33 kPa, x1 = 0.106	3.198
298 K, 101.33 kPa, x1 = 0.111	3.378
298 K, 101.33 kPa, x1 = 0.151	4.902
298 K, 101.33 kPa, x1 = 0.2128	7.936
298 K, 101.33 kPa, x1 = 0.2654	11.32
298 K, 101.33 kPa, x1 = 0.311	14.88
298 K, 101.33 kPa, x1 = 0.3511	18.8
298 K, 101.33 kPa, x1 = 0.3871	22.93
298 K, 101.33 kPa, x1 = 0.422	27.24
298 K, 101.33 kPa, x1 = 0.4737	35.19
298 K, 101.33 kPa, x1 = 0.5388	46.3
298 K, 101.33 kPa, x1 = 0.6043	59.76
298.15 K, 100 kPa, x2 = 0.333	70.64
298.15 K, 101 kPa, x1 = 0.0018	0.9162
298.15 K, 101 kPa, x1 = 0.0054	0.9543
298.15 K, 101 kPa, x1 = 0.0089	1
298.15 K, 101 kPa, x1 = 0.012	1.054
298.15 K, 101 kPa, x1 = 0.016	1.089
298.15 K, 101 kPa, x1 = 0.404	24.33
298.15 K, 101 kPa, x1 = 0.441	27.61
298.15 K, 101 kPa, x1 = 0.504	37.59
298.15 K, 101 kPa, x1 = 0.537	43.17
298.15 K, 101 kPa, x1 = 0.574	50.35
298.15 K, 101 kPa, x1 = 0.603	54.12
298.15 K, 101 kPa, x1 = 0.616	60.3
298.15 K, 101 kPa, x1 = 0.626	64.75
303.15 K, 100 kPa, x2 = 0.333	55.6
303.15 K, 101 kPa, x1 = 0.0018	0.8163
303.15 K, 101 kPa, x1 = 0.0054	0.8526
303.15 K, 101 kPa, x1 = 0.0089	0.8928
303.15 K, 101 kPa, x1 = 0.012	0.9281
303.15 K, 101 kPa, x1 = 0.016	0.9679
303.15 K, 101 kPa, x1 = 0.404	20.3
303.15 K, 101 kPa, x1 = 0.441	23.66
303.15 K, 101 kPa, x1 = 0.504	30.35
303.15 K, 101 kPa, x1 = 0.537	34.61
303.15 K, 101 kPa, x1 = 0.574	38.68
303.15 K, 101 kPa, x1 = 0.603	43.03
303.15 K, 101 kPa, x1 = 0.616	46.81
303.15 K, 101 kPa, x1 = 0.626	52.57
308.15 K, 100 kPa, x2 = 0.333	46.73
308.15 K, 101 kPa, x1 = 0.0018	0.7331
308.15 K, 101 kPa, x1 = 0.0054	0.763
308.15 K, 101 kPa, x1 = 0.0089	0.794
308.15 K, 101 kPa, x1 = 0.012	0.84
308.15 K, 101 kPa, x1 = 0.016	0.8774
308.15 K, 101 kPa, x1 = 0.404	17.53
308.15 K, 101 kPa, x1 = 0.441	19.85
308.15 K, 101 kPa, x1 = 0.504	24.19
308.15 K, 101 kPa, x1 = 0.537	27.64
308.15 K, 101 kPa, x1 = 0.574	31.89
308.15 K, 101 kPa, x1 = 0.603	33.9
308.15 K, 101 kPa, x1 = 0.616	37.64
308.15 K, 101 kPa, x1 = 0.626	41.08
313.15 K, 100 kPa, x2 = 0.333	39.76
313.15 K, 101 kPa, x1 = 0.404	14.63
313.15 K, 101 kPa, x1 = 0.441	17.7
313.15 K, 101 kPa, x1 = 0.504	21.48
313.15 K, 101 kPa, x1 = 0.537	22.64
313.15 K, 101 kPa, x1 = 0.574	25.3
313.15 K, 101 kPa, x1 = 0.603	27.25
313.15 K, 101 kPa, x1 = 0.616	29.46
313.15 K, 101 kPa, x1 = 0.626	32.1
318.15 K, 100 kPa, x2 = 0.333	32.46
323.15 K, 100 kPa, x2 = 0.333	27.57

Source: the CheMixHub viscosity set
